Source: patent US10407415B2, “Dihydrate of benzothiophene compound or of a salt thereof, and process for producing the same” (OTSUKA PHARMACEUTICAL CO., LTD., priority 2012, dated 2019)

Tests used:
[1] = Measurement of drug residue in muscle; assay type: in vivo; conditions: rat, injectable preparation 100 mg/mL (finely ground, mean particle diameter 3.5 μm) intramuscularly injected at 25 mg/kg, dissected 56 days after the injection
Description: The dihydrate of the present invention (150 mg) was dispersed to the suspension medium (1 mL) described below, and pulverized using 5 mm zirconia beads (1.2 g, pulverization time: 30 min) while being stirred with a stirrer. The suspension medium used for pulverization was a solution containing 0.832% (w/v) sodium carboxymethylcellulose (CMC-Na), 4.16% (w/v) mannitol, and 0.074% (w/v) sodium dihydrogenphosphatemonohydrate. The pH thereof was adjusted to 7.0 by adding an appropriate amount of sodium hydroxide. The concentration of each preparation was adjusted to 100 mg/mL using this medium.
An anhydride was subjected to pulverization in the same manner to obtain an anhydride (finely ground product) having a mean particle diameter of 3.5 μm. The mean particle diameter was measured using a laser diffraction particle size analyzer (SALD-3000) or SALD-3100, manufactured by Shimadzu Corporation).
Injectable preparations each containing the dihydrate of the present invention (finely ground product, mean particle diameter: 3.5 μm) or an anhydride (finely ground product, mean particle diameter: 3.5 μm) were obtained by the procedure described above.
Each injectable preparation thus obtained was intramuscularly injected into a rat in a dosage of 25 mg/kg. Each injectable preparation was injected into three rats.

[2] = Pharmacokinetics test using a dog (intramuscular injectable preparation); assay type: in vivo; conditions: 10 mg/kg calculated as the anhydride
Description: Injectable preparations containing the dihydrate of the present invention as an active ingredient were formulated as shown in Table 3. Each of the injectable preparations was injected into the thigh muscle of a dog in such a dosage that 10 mg/kg of active ingredient calculated as the anhydride of the present invention was contained. FIG. 14 is a graph showing the mean blood concentration-time profile after the injection. As is clear from FIG. 14, the sustained release property can be stably maintained for more than 30 days from the injection.

SMILES: O=c1ccc2ccc(OCCCCN3CCN(c4cccc5sccc45)CC3)cc2[nH]1 [Anhydride, 7-[4-(4-benzo[b]thiophen-4-yl-piperazin-1-yl)butoxy]-1H-quinolin-2-one anhydride, reference compound]
- The number having residue in muscle (Number having residue/Total) [1]: 0/3

SMILES: O=c1ccc2ccc(OCCCCN3CCN(c4cccc5sccc45)CC3)cc2[nH]1 [Dihydrate, 7-[4-(4-benzo[b]thiophen-4-yl-piperazin-1-yl)butoxy]-1H-quinolin-2-one dihydrate]
- time for which the sustained release property is stably maintained (mean blood concentration-time profile, FIG. 14) ([2]; injected into the thigh muscle, Table 3 formulation): more than 30 days
- Stimulation at the injection site ([2]; thigh muscle injection, observed 7 days after the injection): low
- The number having residue in muscle (Number having residue/Total) ([1]; dihydrate): 3/3
